In US20190093163A1, “COMPOSITIONS AND METHODS FOR MAINTAINING SPLICING FIDELITY” (President and Fellows of Harvard College, priority 2015, published 2019):

Tested on: SF1
Assay: Immunoblots of SF1 in WT MEFs treated with TORC1 inhibitors
Type: cell-based
Details: mouse embryonic fibroblasts; rapamycin 20 nM, Torin 250 nM
Protocol: To control for the SF1 antibody specificity, WT MEF transfected with non-targeting control siRNAs (siCt) or SF1 siRNA for 72 h and grown in 10% FBS, are shown on the right side of the blot. Biological duplicates are shown except for the siRNA treated lanes.
Immunoblotting was performed as in FIG. 14, Panel G. Biological duplicates are shown except for the siRNA treated lanes.
The inverted splicing reporter WBM535 was made by injecting modified minigene reporter plasmids into N2 worms. The plasmids were made by deleting the (+2) frameshift in the EGFP minigene and inserting a (+2) frameshift into the mCherry minigene. Worms were grown and maintained on standard nematode growth media (NGM) seeded with E. coli (OP50-1). E. coli bacteria were cultured overnight in LB at 37° C., after which 100 μl of liquid culture was seeded on plates to grow for 2 days at room temperature. Lifespans—All lifespans were conducted at 20° C. unless otherwise noted in figure legend. Lifespans were performed as described in Burkewitz et al. (93). Graphpad Prism 6 was used to plot survival curves and determine median lifespan. Survival curves were compared and p values calculated using the log-rank (Mantel-Cox) analysis method. […] RNA interference—All RNAi constructs came from the Ahringer RNAi library, except hrp-2 and hrpf-1 RNAi constructs, which originated from the Vidal RNAi library. RNAi experiments were carried out using E. coli HT115 bacteria on standard NGM plates containing 100 μg/ml Carbenicillin. […] NGM plus Carbenicillin plates were seeded 48 hours before use. Respective dsRNA expressing HT115 bacteria were induced by adding 100 μl IPTG (100 mM) one hour before introducing worms to the plate. RNAi was induced for all experiments from egg hatch. Solid plate-based dietary restriction assays—Solid sDR assays were performed as described by Ching et al. (79). Plates were prepared in advance and stored at 4° C.

SMILES	SF1 gel shifts indicative of altered phosphorylation	total SF1 levels
CCC(=O)N1CCN(c2ccc(-n3c(=O)ccc4cnc5ccc(-c6cnc7ccccc7c6)cc5c43)cc2C(F)(F)F)CC1 [torin, Torin1]	nor did were SF1 gel shifts indicative of altered phosphorylation seen	no effect
CO[C@H]1C[C@@H]2CC[C@@H](C)[C@@](O)(O2)C(=O)C(=O)N2CCCC[C@H]2C(=O)O[C@H]([C@H](C)C[C@@H]2CC[C@@H](O)[C@H](OC)C2)CC(=O)[C@H](C)/C=C(\C)[C@@H](O)[C@@H](OC)C(=O)[C@H](C)C[C@H](C)/C=C/C=C/C=C/1C [rapamycin]	–	no effect
